Data taken from patent US12427210B2, “Compounds comprising a fibroblast activation protein ligand and use thereof” (priority 2019, dated 2025).
Where two headings read alike, the source gives them in different places. Numbered stars: 1 amine (or outer) side, 2 acyl side, 3 side chain; on linkers, the order of the positions; unused ones are H or OH. Bridge positions count the residues as written; N and C are the ends. Peptide text beside a SMILES is read from it. * marks the point of attachment. X1 = O=C(O)CN1CCN(CC(=O)O)CCN(CC(=O)N2CCN(Cc3cc(C[*:1])cc(C[*:2])c3)CC2)CCN(CC(=O)O)CC1; Hexanoyl = CCCCCC(=O)*

What was measured:
[1] = target: MAO-A (Rattus norvegicus, UniProt P21396); experiment: biochemical; conditions: read-out: % Inhibition of Specific Binding
Chain of MAO-A (P21396 whole entry): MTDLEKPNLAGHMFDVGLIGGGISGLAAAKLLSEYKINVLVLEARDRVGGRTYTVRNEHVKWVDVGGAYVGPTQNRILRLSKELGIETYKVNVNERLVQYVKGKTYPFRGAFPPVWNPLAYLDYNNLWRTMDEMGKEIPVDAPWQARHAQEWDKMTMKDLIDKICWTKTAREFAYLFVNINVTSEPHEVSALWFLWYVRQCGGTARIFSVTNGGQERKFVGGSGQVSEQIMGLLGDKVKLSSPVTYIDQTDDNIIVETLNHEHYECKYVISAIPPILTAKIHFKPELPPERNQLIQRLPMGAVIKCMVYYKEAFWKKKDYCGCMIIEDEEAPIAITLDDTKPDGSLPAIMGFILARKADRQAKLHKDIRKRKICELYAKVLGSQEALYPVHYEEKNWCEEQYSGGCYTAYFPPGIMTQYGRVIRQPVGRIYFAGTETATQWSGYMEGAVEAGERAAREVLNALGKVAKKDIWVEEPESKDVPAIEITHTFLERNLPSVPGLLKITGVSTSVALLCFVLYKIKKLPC

[2] = target: T1, Ubiquitin carboxyl-terminal hydrolase 8 (Homo sapiens, UniProt P40818); experiment: biochemical; conditions: read-out: Percentage inhibition (%)
T1 sequence (P40818 1-1118): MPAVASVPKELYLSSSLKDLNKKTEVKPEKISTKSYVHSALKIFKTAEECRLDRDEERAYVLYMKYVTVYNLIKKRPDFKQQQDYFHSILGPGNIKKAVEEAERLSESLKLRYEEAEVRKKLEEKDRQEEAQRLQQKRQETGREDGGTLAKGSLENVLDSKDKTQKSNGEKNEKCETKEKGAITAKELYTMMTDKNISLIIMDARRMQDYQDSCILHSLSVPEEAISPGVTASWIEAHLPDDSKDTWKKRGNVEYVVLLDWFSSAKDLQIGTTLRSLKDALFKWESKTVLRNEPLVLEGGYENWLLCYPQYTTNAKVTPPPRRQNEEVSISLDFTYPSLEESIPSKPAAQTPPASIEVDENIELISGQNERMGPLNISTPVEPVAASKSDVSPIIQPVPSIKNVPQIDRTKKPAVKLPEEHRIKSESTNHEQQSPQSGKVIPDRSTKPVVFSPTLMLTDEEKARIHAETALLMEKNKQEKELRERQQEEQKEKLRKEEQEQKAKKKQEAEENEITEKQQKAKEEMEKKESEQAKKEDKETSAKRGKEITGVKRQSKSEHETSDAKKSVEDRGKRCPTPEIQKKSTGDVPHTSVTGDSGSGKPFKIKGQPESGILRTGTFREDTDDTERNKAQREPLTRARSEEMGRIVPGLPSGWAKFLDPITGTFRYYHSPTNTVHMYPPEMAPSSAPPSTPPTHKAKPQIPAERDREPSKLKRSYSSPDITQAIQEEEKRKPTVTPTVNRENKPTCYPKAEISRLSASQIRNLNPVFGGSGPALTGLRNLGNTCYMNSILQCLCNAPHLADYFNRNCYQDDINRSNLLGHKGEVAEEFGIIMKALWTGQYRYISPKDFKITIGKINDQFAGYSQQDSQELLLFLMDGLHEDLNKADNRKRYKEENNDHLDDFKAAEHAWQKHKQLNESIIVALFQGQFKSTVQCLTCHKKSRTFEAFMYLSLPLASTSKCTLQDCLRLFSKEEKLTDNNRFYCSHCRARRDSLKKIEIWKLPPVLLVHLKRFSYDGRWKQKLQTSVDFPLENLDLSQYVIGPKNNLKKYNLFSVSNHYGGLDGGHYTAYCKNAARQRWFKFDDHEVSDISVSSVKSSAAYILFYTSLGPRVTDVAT

[3] = target: 5-HT2B (h) (Homo sapiens, UniProt P41595); experiment: biochemical; conditions: read-out: % Inhibition of Specific Binding
[4] = target: M1 (h) (Homo sapiens, UniProt P11229); experiment: biochemical; conditions: read-out: % Inhibition of Specific Binding
Chain of M1 (h) (P11229 whole entry): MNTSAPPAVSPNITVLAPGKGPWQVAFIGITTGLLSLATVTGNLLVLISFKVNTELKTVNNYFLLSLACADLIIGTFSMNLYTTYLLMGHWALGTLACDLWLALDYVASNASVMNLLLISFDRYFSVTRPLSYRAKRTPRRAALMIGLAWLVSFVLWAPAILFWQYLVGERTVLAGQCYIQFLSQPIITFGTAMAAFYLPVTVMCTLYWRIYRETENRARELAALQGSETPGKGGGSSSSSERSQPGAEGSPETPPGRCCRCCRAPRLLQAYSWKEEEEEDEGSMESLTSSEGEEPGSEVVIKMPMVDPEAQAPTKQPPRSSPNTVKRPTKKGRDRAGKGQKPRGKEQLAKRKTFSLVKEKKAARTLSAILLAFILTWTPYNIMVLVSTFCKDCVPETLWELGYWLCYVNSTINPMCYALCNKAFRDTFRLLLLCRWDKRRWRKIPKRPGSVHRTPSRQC

[5] = target: 5-HT2A (h) (Homo sapiens, UniProt P28223); experiment: biochemical; conditions: read-out: % Inhibition of Specific Binding
Chain of 5-HT2A (h) (P28223 whole entry): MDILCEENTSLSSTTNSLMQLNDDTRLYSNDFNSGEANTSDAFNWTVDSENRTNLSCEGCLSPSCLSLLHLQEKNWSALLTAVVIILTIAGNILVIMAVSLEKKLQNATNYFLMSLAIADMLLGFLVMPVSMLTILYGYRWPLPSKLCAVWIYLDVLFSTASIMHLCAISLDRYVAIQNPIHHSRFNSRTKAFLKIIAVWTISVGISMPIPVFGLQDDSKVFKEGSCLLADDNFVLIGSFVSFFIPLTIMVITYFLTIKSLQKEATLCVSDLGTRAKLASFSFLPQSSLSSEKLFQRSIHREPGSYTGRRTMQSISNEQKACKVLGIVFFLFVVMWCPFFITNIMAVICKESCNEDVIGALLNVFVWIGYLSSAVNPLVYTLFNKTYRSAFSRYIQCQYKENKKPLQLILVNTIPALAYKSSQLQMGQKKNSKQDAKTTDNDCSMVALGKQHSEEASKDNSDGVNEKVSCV

[6] = target: Caspase-8 (Homo sapiens, UniProt Q14790); experiment: biochemical; conditions: read-out: Percentage inhibition (%)
Chain of Caspase-8 (Q14790 217-374 limits assumed, species assumed): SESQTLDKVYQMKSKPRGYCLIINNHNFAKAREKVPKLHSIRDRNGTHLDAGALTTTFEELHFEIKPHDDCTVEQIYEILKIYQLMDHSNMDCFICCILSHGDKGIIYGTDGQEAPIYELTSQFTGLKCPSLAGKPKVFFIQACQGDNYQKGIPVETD
Chain of Caspase-8 (Q14790 385-479 limits assumed, species assumed): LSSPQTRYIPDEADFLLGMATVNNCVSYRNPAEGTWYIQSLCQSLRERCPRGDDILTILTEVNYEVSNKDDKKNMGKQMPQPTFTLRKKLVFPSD

[7] = test system: KV channel; conditions: 10 μM
[8] = target: Beta secretase (Homo sapiens, UniProt P56817); experiment: biochemical; conditions: read-out: Percentage inhibition (%)
Chain of Beta secretase (P56817 46-501): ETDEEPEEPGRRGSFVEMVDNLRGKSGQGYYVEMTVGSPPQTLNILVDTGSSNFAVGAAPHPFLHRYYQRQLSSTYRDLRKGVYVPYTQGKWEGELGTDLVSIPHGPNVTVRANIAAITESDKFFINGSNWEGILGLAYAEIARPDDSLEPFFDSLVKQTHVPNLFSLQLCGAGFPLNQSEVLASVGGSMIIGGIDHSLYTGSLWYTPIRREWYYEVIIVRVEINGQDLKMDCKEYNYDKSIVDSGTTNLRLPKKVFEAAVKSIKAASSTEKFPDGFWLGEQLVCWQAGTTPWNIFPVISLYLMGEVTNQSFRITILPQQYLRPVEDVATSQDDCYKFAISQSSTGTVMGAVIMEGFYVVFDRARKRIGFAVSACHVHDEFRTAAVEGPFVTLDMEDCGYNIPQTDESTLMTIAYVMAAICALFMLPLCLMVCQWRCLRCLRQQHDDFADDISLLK

[9] = test system: serine protease NS3 (a.a. 3-181) from Hepatitis C virus genotype 1b (mutant R155Q)
[10] = target: serine protease NS3 (a.a. 3-181) from Hepatitis C virus genotype 2a (Hepatitis C virus genotype 2a, UniProt Q99IB8); experiment: biochemical; conditions: read-out: Percentage inhibition (%)
Chain of serine protease NS3 (a.a. 3-181) from Hepatitis C virus genotype 2a (Q99IB8 1033-1211 limits assumed, other chains not shown): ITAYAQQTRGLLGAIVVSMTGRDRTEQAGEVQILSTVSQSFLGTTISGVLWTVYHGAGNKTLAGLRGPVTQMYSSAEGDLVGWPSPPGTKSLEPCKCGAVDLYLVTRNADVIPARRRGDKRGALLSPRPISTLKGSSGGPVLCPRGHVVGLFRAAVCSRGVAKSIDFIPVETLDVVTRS

[11] = target: FAP (Homo sapiens, UniProt Q12884); experiment: biochemical; conditions: read-out: Percentage inhibition (%)
Chain of FAP (Q12884 whole entry): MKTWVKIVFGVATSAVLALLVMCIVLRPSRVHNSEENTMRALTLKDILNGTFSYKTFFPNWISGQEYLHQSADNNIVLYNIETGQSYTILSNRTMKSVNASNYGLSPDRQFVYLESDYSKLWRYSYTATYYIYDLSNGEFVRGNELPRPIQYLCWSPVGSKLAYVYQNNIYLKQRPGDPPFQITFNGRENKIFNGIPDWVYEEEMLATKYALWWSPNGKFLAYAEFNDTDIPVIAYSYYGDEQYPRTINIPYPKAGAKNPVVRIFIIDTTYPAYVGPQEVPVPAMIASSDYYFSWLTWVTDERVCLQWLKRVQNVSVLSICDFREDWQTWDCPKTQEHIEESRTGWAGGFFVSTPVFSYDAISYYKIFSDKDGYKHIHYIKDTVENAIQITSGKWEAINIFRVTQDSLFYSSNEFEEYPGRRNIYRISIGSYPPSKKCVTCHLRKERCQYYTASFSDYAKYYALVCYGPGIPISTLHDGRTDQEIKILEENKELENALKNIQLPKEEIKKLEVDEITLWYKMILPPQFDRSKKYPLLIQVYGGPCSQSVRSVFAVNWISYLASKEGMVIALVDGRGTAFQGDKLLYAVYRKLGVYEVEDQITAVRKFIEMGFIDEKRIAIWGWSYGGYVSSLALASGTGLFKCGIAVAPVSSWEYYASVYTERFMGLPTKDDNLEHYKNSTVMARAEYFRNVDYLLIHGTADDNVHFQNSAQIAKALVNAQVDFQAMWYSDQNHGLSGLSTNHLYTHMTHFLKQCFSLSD

[12] = target: alpha 2A (h) (Homo sapiens, UniProt P08913); experiment: biochemical; conditions: read-out: % Inhibition of Specific Binding
Chain of alpha 2A (h) (P08913 whole entry): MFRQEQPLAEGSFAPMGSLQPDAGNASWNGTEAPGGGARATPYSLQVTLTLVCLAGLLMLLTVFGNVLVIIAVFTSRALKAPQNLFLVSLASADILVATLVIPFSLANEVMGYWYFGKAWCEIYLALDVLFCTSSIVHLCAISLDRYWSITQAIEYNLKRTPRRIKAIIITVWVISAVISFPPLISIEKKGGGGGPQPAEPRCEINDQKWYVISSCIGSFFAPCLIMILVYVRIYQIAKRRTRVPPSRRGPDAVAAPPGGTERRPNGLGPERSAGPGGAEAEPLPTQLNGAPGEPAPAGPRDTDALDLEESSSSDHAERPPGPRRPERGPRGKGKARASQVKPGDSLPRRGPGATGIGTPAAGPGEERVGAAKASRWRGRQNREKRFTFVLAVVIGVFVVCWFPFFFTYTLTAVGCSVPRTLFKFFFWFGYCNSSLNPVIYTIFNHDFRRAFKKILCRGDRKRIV

[13] = test system: Ca2+ channel (L, dihydropyridine site); conditions: 10 μM
[14] = target: T2, Ubiquitin carboxyl-terminal hydrolase 2 (Homo sapiens, UniProt O75604); experiment: biochemical; conditions: read-out: Percentage inhibition (%)
T2 sequence (O75604 1-605): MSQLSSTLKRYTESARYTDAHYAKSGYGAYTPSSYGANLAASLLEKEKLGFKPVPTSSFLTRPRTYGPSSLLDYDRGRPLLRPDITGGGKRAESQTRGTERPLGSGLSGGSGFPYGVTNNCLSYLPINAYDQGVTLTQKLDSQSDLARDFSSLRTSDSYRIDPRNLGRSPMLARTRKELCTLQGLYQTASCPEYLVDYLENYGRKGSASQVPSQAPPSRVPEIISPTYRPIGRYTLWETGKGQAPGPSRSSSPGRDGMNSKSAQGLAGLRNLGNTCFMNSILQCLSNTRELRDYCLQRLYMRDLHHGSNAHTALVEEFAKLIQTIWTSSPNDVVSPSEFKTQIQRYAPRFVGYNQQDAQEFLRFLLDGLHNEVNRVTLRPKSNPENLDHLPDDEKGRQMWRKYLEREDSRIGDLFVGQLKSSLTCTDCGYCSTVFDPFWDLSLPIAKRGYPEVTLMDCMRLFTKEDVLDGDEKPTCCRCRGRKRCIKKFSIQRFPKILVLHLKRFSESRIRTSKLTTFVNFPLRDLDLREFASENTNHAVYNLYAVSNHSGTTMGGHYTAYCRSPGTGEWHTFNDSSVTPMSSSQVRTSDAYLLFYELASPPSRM

[15] = target: Ataxin3 (Homo sapiens, UniProt P54252); experiment: biochemical; conditions: read-out: Percentage inhibition (%)
Chain of Ataxin3 (P54252 whole entry, species assumed): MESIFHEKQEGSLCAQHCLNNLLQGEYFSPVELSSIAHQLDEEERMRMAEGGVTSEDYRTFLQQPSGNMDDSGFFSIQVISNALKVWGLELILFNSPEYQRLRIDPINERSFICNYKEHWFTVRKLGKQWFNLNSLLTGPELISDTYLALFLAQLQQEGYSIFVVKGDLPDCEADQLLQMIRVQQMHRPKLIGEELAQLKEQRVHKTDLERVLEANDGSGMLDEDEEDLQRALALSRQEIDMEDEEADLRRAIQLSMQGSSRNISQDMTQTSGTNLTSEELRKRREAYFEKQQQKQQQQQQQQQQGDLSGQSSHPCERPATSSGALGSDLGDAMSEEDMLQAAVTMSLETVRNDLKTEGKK

[16] = target: M3 (h) (Homo sapiens, UniProt P20309); experiment: biochemical; conditions: read-out: % Inhibition of Specific Binding
Chain of M3 (h) (P20309 whole entry): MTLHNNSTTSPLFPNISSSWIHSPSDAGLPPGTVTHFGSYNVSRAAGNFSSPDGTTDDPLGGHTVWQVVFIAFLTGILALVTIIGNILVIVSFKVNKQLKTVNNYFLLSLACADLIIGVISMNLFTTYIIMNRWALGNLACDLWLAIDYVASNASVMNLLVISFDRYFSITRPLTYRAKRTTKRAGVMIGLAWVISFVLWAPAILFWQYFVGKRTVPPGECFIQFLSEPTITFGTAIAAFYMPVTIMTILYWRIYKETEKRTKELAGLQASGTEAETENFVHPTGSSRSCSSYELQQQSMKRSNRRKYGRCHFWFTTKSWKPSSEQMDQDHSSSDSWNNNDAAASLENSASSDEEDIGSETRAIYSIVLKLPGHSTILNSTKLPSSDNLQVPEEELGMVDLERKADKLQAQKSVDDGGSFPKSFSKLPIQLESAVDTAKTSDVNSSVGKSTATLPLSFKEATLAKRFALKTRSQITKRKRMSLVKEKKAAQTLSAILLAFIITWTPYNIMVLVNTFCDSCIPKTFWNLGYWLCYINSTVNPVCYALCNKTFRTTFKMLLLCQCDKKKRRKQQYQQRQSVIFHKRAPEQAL

Structure (SMILES)	inhibition at 10 µM [1]	inhibition at 1 µM [2]	inhibition at 10 µM [2]	inhibition at 10 µM [3]	inhibition at 10 µM [4]	inhibition at 10 µM [5]	inhibition at 1 µM [6]	inhibition at 10 µM [6]	% Inhibition of Specific Binding [7]	inhibition at 1 µM [8]	inhibition at 10 µM [8]	Percentage inhibition (%) ([9]; 1 μM)	Percentage inhibition (%) ([9]; 10 μM)	inhibition at 1 µM [10]	inhibition at 10 µM [10]	inhibition at 1 µM [11]	inhibition at 10 µM [11]	inhibition at 10 µM [12]	% Inhibition of Specific Binding [13]	inhibition at 1 µM [14]	further results
CCCCCC(=O)N[C@H]1CSCc2cc(CSCCNC(=O)CN3CCN(CC(=O)O)CCN(CC(=O)O)CCN(CC(=O)O)CC3)cc(c2)CSC[C@@H](C(=O)O)NC(=O)[C@H](Cc2ccccc2)NC(=O)[C@H](CCC(N)=O)NC(=O)[C@H]([C@@H](C)O)NC(=O)[C@@H]2CCCN2C(=O)[C@@H]2CCCN2C1=O [Compound 3BP-3554, Hex-[Cys(tMeBn(DOTA-AET))-Pro-Pro-Thr-Gln-Phe-Cys]-OH]	-25%	2%	1%	3%	8%	4%	0%	-3%	4%	1%	7%	0%	−5%	-13%	-40%	97%	99%	2%	54%	0%	inhibition at 10 µM [14]: -1%; inhibition at 1 µM [15]: 2%; inhibition at 10 µM [15]: -1%; inhibition at 10 µM [16]: 1%
CCCCCC(=O)N[C@H]1CSCc2cc(cc(CN3CCN(C(=O)CN4CCN(CC(=O)O)CCN(CC(=O)O)CCN(CC(=O)O)CC4)CC3)c2)CSC[C@@H](C(=O)N[C@@H](CC(=O)O)C(N)=O)NC(=O)[C@H](Cc2ccccc2)NC(=O)[C@H](CCC(N)=O)NC(=O)[C@H]([C@@H](C)O)NC(=O)[C@@H]2CCCN2C(=O)[C@@H]2CCCN2C1=O [Compound 3BP-3407, Hex-[Cys(tMeBn(DOTA-PP))-Pro-Pro-Thr-Gln-Phe-Cys]-Asp-NH2] (Hexanoyl-CPPTQFCD-NH2; linker 1-7 via X1)	-5%	-3%	6%	2%	6%	-2%	0%	0%	−5%	-8%	-5%	0%	2%	0%	-2%	98%	99%	-9%	42%	3%	inhibition at 10 µM [14]: 7%; inhibition at 1 µM [15]: 1%; inhibition at 10 µM [15]: 10%; inhibition at 10 µM [16]: 10%
